Data taken from the supplement of paper PMC10307832.

Legend:
Assay in all cases: relative viability (nuclei count vs DMSO), 5 days (fraction); higher = more cells survive
Daporinad + Dasatinib = compound: O=C(/C=C/c1cccnc1)NCCCCC1CCN(C(=O)c2ccccc2)CC1 [Daporinad] + Cc1nc(Nc2ncc(C(=O)Nc3c(C)cccc3Cl)s2)cc(N2CCN(CCO)CC2)n1 [Dasatinib] (partner 0.075 µM)
Method in brief: (§1)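 Cells from lung cancer lines were seeded into 1536-well plates and, one day later, dosed by pin tool. Treatments were either a single drug or a fixed dose of an anchor drug with five library-drug doses (not always all listed) in √10 steps. After 5 days, nuclei were stained in a one-step fixation (final 0.05% Triton X-100, 1% formaldehyde, 1 ug/ml Hoechst) and counted on 4× images, and relative viability is the treated-to-vehicle nuclei ratio, as the median of duplicate plates.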

R406 + Bortezomib = compound: COc1cc(Nc2ncc(F)c(Nc3ccc4c(n3)NC(=O)C(C)(C)O4)n2)cc(OC)c1OC [R406] + CC(C)C[C@H](NC(=O)[C@H](Cc1ccccc1)NC(=O)c1cnccn1)B(O)O [Bortezomib] (partner 0.002 µM)
Method in brief: as §1

Daporinad + Luminespib = compound: O=C(/C=C/c1cccnc1)NCCCCC1CCN(C(=O)c2ccccc2)CC1 [Daporinad] + CCNC(=O)c1noc(-c2cc(C(C)C)c(O)cc2O)c1-c1ccc(CN2CCOCC2)cc1 [Luminespib] (partner 0.01 µM)
Method in brief: as §1

R406 + Decitabine = compound: COc1cc(Nc2ncc(F)c(Nc3ccc4c(n3)NC(=O)C(C)(C)O4)n2)cc(OC)c1OC [R406] + Nc1ncn([C@H]2C[C@H](O)[C@@H](CO)O2)c(=O)n1 [Decitabine] (partner 2 µM)
Method in brief: as §1

Row | Cell Line | relative viability (Daporinad + Dasatinib; first compound 0.0005 µM) | relative viability (Daporinad + Dasatinib; first compound 0.001581 µM) | relative viability (Daporinad + Dasatinib; first compound 0.005 µM) | relative viability (Daporinad + Dasatinib; first compound 0.01581 µM) | relative viability (R406 + Bortezomib; first compound 0.08 µM) | relative viability (R406 + Bortezomib; first compound 0.253 µM) | relative viability (R406 + Bortezomib; first compound 0.8 µM) | relative viability (R406 + Bortezomib; first compound 2.53 µM) | relative viability (R406 + Bortezomib; first compound 8 µM) | relative viability (Daporinad + Luminespib; first compound 0.001581 µM) | relative viability (Daporinad + Luminespib; first compound 0.005 µM) | relative viability (Daporinad + Luminespib; first compound 0.01581 µM) | relative viability (R406 + Decitabine; first compound 0.08 µM) | relative viability (R406 + Decitabine; first compound 0.253 µM) | relative viability (R406 + Decitabine; first compound 0.8 µM) | relative viability (R406 + Decitabine; first compound 2.53 µM) | relative viability (R406 + Decitabine; first compound 8 µM) | relative viability (Daporinad + Luminespib; first compound 0.0005 µM)
1 | NCI-H1792 | 0.617 | 0.815 | 0.477 | 0.921 | 0.981 | 0.909 | 1.04 | 0.851 | 0.861 | 0.443 | 0.347 | 0.604 | 0.558 | 0.727 | 0.59 | 0.515 | 0.352 | 
2 | NCI-H1915 | 0.299 | 0.331 | 0.399 | 0.337 | 0.963 | 1.01 | 0.985 | 0.79 | 0.898 | 0.703 | 0.786 | 0.824 | 0.258 | 0.298 | 0.265 | 0.293 | 0.278 | 0.893
3 | NCI-H1975 | 0.336 | 0.364 | 0.356 | 0.38 | 0.444 | 0.39 | 0.401 | 0.162 | 0.178 | 0.262 | 0.183 | 0.3 | 0.368 | 0.401 | 0.386 | 0.31 | 0.19 | 0.206
4 | NCI-H1993 | 0.548 | 0.481 | 0.664 | 0.676 | 1.04 | 1.12 | 1.11 | 0.544 | 0.6 | 0.797 | 0.787 | 0.891 | 0.623 | 0.634 | 0.599 | 0.537 | 0.542 | 0.795
5 | NCI-H2009 | 0.295 | 0.337 | 0.277 | 0.22 | 0.983 | 1.11 | 1.24 | 0.427 | 0.27 | 1.08 | 1 | 0.702 | 0.371 | 0.42 | 0.383 | 0.353 | 0.294 | 1.02
6 | NCI-H2023 | 0.504 | 0.711 | 0.631 | 0.72 | 0.914 | 1.04 | 1.08 | 0.0862 | 0.29 | 0.759 | 0.918 | 0.717 | 0.246 | 0.254 | 0.247 | 0.127 | 0.195 | 0.727
7 | NCI-H2085 | 0.268 | 0.244 | 0.267 | 0.284 | 0.996 | 1.14 | 1.1 | 0.708 | 0.775 | 0.434 | 0.549 | 0.503 | 0.592 | 0.58 | 0.492 | 0.544 | 0.451 | 0.386
8 | NCI-H2087 | 0.787 | 1.17 | 0.934 | 0.923 | 0.815 | 1.02 | 0.847 | 0.428 | 0.751 | 0.177 | 0.154 | 0.159 | 0.24 | 0.264 | 0.301 | 0.221 | 0.152 | 0.178
9 | NCI-H2126 | 0.681 | 0.57 | 0.547 | 0.727 | 1.05 | 1.13 | 1.24 | 1.03 | 1.04 | 0.897 | 0.921 | 0.924 | 0.618 | 0.629 | 0.638 | 0.545 | 0.582 | 0.883
10 | NCI-H2347 | 0.326 | 0.308 | 0.342 | 0.299 | 1.07 | 1.25 | 1.19 | 0.815 | 0.642 | 0.43 | 0.322 | 0.431 | 0.666 | 0.645 | 0.594 | 0.631 | 0.562 | 0.607
11 | NCI-H2405 | 0.168 | 0.226 | 0.231 | 0.252 | 1.01 | 1.11 | 1.05 | 0.941 | 0.845 | 0.884 | 1.01 | 0.723 | 0.703 | 0.814 | 0.756 | 0.615 | 0.369 | 0.853
12 | NCI-H3122 | 0.664 | 0.73 | 0.807 | 0.59 | 0.97 | 0.972 | 1.03 | 1.01 | 0.947 | 0.0544 | 0.0785 | 0.0818 | 0.368 | 0.398 | 0.328 | 0.508 | 0.482 | 0.0688
13 | PC-3 [JPC-3] | 0.928 | 1.01 | 0.943 | 0.947 | 0.916 | 0.866 | 0.927 | 0.758 | 0.755 | 0.677 | 0.73 | 0.735 | 0.912 | 0.898 | 0.974 | 0.747 | 0.62 | 0.68
14 | PC-14 | 0.276 | 0.315 | 0.293 | 0.363 | 0.874 | 0.957 | 0.909 | 0.604 | 0.704 | 0.106 | 0.196 | 0.196 | 0.301 | 0.237 | 0.25 | 0.0789 | 0.0868 | 
15 | RERF-LC-KJ | 0.757 | 0.804 | 0.975 | 0.804 | 1.15 | 1.23 | 1.26 | 0.932 | 1.01 | 1.4 | 1.18 | 1.07 | 0.706 | 0.628 | 0.72 | 0.252 | 0.529 | 1.22
16 | SK-LU-1 | 0.209 | 0.184 | 0.204 | 0.235 | 1.16 | 1.32 | 1.09 | 0.384 | 0.544 | 0.204 | 0.227 | 0.225 | 0.583 | 0.832 | 0.728 | 0.599 | 0.476 | 0.193
17 | SW 1573 | 0.339 | 0.801 | 0.446 | 0.367 | 0.994 | 1.23 | 1.35 | 0.768 | 0.569 | 0.737 | 0.207 | 0.296 | 0.398 | 0.579 | 0.604 | 0.186 | 0.172 | 0.207
